The values below come from patent publication US20120178124A1, “STEROL SIDE CHAIN-CLEAVING ENZYME PROTEIN AND USE THEREOF” (MITSUBISHI CHEMICAL CORPORATION, priority 2009, published 2012).

One data set deals with CYPSS204A. The experiment in a line: Conversion reaction of substrates by Escherichia coli expression strain BP215. The format is cell-based, Sphingomonas subterranea NBRC 16086. The note with it: strain BP215, 28° C., 5 hours; for Conversion rate: to progesterone, pregnenolone or 7-dehydropregnenolone. As to the method:
The temperature conditions applied during the PCR were 95° C./5 min, 30 cycles of (98° C./30 sec, 60° C./30 sec, and 68° C./2 min), and 68° C./10 min.
Analysis conditions: Using Chromolith speed rod RP18e (50×4.6 mm) column, 50%→100% CH3CN gradient (0 to 3 min) and 100% CH3CN (3 to 8 min) were used as a mobile phase, and detection was carried out at a flow rate of 2 ml/min using CAD™ (Charged Aerosol Detection) and MS.

A further data set concerns CYP204A1. The note with it: for accumulated amount of pregnenolone / added substrate remained: strain BP172, same reaction as Example 6; for Conversion rate: strain BP172, same reaction as Example 6 (28° C., 5 hours). As to the method: Novosphingobium aromaticivorans (ATCC 700278) was inoculated into an L medium, and it was then cultured at 30° C. for 2 days. Thereafter, genomic DNA was extracted from the cell mass obtained in the same manner as that of Example 1. A fragment comprising a CYPSS204A1 gene and a ferredoxin gene located downstream thereof was amplified from the above-described genomic DNA by using a primer CYP-5F (SEQ ID NO: 9) and a primer CYP-6R (SEQ ID NO: 10) and also using La Taq polymerase (manufactured by Takara Bio INC.). The temperature conditions applied during this operation were 94° C./3 min, 30 cycles of (98° C./20 sec, 63° C./30 sec, and 68° C./2 min), and 72° C./5 min.
Escherichia coli BL21(DE3) was transformed with this plasmid, and the obtained cell strain was named as BP172.
(§1) The Escherichia coli expression strain BP215 was inoculated into 2 ml of an M9 mix medium (Na2HPO4: 0.68%, KH2PO4: 0.3%, NaCl: 0.05%, NH4C;: 0.01%, Casamino acid: 1%, D-Glucose: 0.4%, CaCl2: 0.1 mM, MgCl2: 1 mM, Thiamine: 0.002%, FeSO4: 0.1 mM, Carbenicillin: 0.005%), and it was then subjected to shaking culture at 30° C. for 17 hours, so as to obtain pre-culture solution. 0.25 ml of this pre-culture solution was inoculated into 25 ml of the main culture medium (Na2HPO4: 0.68%, KH2PO4: 0.3%, NaCl: 0.05%, NH4Cl: 0.01%, Casamino acid: 1%, CaCl2: 0.1 mM, MgCl2: 1 mM, Thiamine: 0.002%, FeSO4: 0.1 mM, Carbenicillin: 0.005%, Overnight Express™ solution: 7%, 5-Aminolevlic acid: 0.008%) using Overnight Express™ Autoinduction System (Novagen Cat. No. 71300-4), and it was then subjected to shaking culture at 25° C. for 24 hours. 5 ml of the obtained main culture solution was centrifuged (3500 rpm, 10 minutes) to obtain cell mass, and 1 ml of CV2 buffer (50 mM (pH) potassium phosphate buffer containing glycerol: 2%, carbenicillin: 0.005%, and isopropyl β-D-1-thiogalactopyranoside: 0.1 mM) was added to the obtained cell mass. Thereafter, 0.01 ml of the methanol solution of 1% 4-cholesten-3-one and 0.02 ml of an aqueous solution of 25% methyl-β-cyclodextrin were added to the mixed solution, and the obtained mixture was then shaken at 28° C. for 5 hours for the reaction. After completion of the reaction, 4 ml of methanol was added to the reaction solution, and they were then fully mixed. The obtained mixture was centrifuged, and the upper layer was then analyzed by HPLC.
As substrates, 4-cholesten-3-one, cholesterol, 7-dehydrocholesterol, ergosterol, 13-sitosterol, stigmasterol, campesterol, desmosterol, (20S)-20-hydroxycholest-4-en-3-one, (22R)-22-hydroxycholest-4-en-3-one, (20R,22R)-20,22-dihydroxycholest-4-en-3-one, and (20R,22S)-20,22-dihydroxycholest-4-en-3-one were used. Each substrate was subjected to the same reaction as that of Example 6, separately, and the generated product was then analyzed by HPLC.

In another data set the target is T1, CYP11A (Homo sapiens, UniProt P05108).
T1 construct: A 1.45-kb CYP11A1 gene fragment amplified as a result of the above-described reaction; expressed in transfected cells; host or cells: Escherichia coli BL21(DE3), plasmid pCYP11A-ARX (strain BL21CYP11)
T1 sequence (P05108 40-521): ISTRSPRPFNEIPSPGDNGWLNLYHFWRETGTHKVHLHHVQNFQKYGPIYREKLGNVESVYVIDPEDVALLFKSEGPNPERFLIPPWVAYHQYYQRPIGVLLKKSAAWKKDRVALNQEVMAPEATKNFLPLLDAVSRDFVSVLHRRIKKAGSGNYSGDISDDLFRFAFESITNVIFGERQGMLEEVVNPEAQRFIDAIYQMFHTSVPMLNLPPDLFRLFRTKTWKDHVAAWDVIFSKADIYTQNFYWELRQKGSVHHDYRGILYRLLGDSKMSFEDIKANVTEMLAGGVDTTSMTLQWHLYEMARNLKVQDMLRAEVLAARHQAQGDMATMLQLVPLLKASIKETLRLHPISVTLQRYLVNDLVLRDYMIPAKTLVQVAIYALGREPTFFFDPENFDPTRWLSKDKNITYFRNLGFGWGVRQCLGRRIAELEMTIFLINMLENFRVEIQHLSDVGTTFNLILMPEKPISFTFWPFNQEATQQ
The experiment in a line: Conversion reaction of substrates by CYP11A-expressing Escherichia coli. The following applies: for accumulated amount of pregnenolone / added substrate remained: same reaction as Example 6; for Conversion rate: same reaction as Example 6 (28° C., 5 hours). The format is cell-based. As to the method: as §1
A commercially available human testis cDNA (Origene Technologies, Inc.) was used as a template, and a CYP11A1 gene was amplified by PCR using a primer CYP11A-1F (SEQ ID NO: 19) and a primer CYP11A-2R (SEQ ID NO: 20), and also using KOD plus polymerase (TOYOBO Co., Ltd.). The temperature conditions applied during the PCR were 94° C./3 min, 30 cycles of (94° C./30 sec, 55° C./60 sec, and 72° C./90sec), and 72° C./5 min.
A 1.45-kb CYP11A1 gene fragment amplified as a result of the above-described reaction was purified using QIAquick PCR purification Kit (manufactured by QIAGEN), and it was then digested with Nde I and Spe I. Thereafter, the digest was ligated to Escherichia coli expression vector pT7NS-camAB, using T4 DNA ligase, and Escherichia coli DH5α was then transformed with the obtained expression vector, so as to construct a plasmid pCYP11A-camAB. Subsequently, using T4 DNA ligase, the previously prepared bovine-derived adrenodoxin reductase protein-adrenodoxin gene (adr-adx) fragment was inserted into and ligated to each of the Spe I and Bam HI sites of the above-described plasmid, and Escherichia coli DH5a was then transformed with the obtained plasmid, so as to construct plasmid pCYP11A-ARX. Thereafter, Escherichia coli BL21(DE3) was transformed with the thus constructed plasmid, and the obtained cell strain was named as BL21CYP11. The used adx-adr fragment was amplified by PCR with a plasmid pKARX (Sawada et. al. Eur. J. Biochem. 265, 950-956,1999) as a template, using primer bAdxR-1F (SEQ ID NO: 21) and primer bAdx-2R (SEQ ID NO: 22), and also using KOD plus polymerase (manufactured by TOYOBO Co., Ltd.). The temperature condition applied during the PCR were 94° C./3 min, 25 cycles of (94° C./30 sec, 60° C./30 sec, and 72° C./120sec), and 72° C./5 min.
Each substrate was subjected to the same reaction as that of Example 6, separately, and the reaction solution was then subjected to liquid separation using 1 ml of ethyl acetate. The reaction product and the substrate were extracted, and were then analyzed by HPLC.

Substrate in data set [1]: CC(C)CCC[C@@H](C)[C@H]1CC[C@H]2[C@@H]3CCC4=CC(=O)CC[C@]4(C)[C@H]3CC[C@]12C
The data set can be described thus: purified protein, by the assay type. The following applies: other: 4-cholesten-3-one 0.1 to 500 μM, pH 7.5, 15° C., 60 minutes, Lineweaver-Burk plot.

Regarding `CC(C)CC[C@@H](O)[C@](C)(O)[C@H]1CC[C@H]2[C@@H]3CC=C4C[C@@H](O)CC[C@]4(C)[C@H]3CC[C@]12C` [(20R,22R)-20,22-dihydroxy-cholesterol], in the data set with CYPSS204A, the “accumulated amount of pregnenolone” value amounted to 53.0 mg/L, the added substrate remained came out at 0% and the Conversion rate is recorded as 53.0%. Moreover, in the data set on CYP204A1, the “accumulated amount of pregnenolone” value was found to be 51.6 mg/L, the added substrate remained is on record as 0% and the Conversion rate is 51.6%. For the same molecule, on CYP11A, the “accumulated amount of pregnenolone” value came out at 32.3 mg/L, the added substrate remained was found to be 51.6% and the Conversion rate was determined as 32.3%.

`CC(C)CCC[C@](C)(O)[C@H]1CC[C@H]2[C@@H]3CC=C4C[C@@H](O)CC[C@]4(C)[C@H]3CC[C@@]21C` [(20S)-20-hydroxy-cholesterol]: in the data set with CYPSS204A, the “accumulated amount of pregnenolone” value stood at 89.2 mg/L, the added substrate remained stood at 0% and the Conversion rate is given as 89.2%. For the same molecule, in the data set on CYP204A1, the “accumulated amount of pregnenolone” value was determined as 68.2 mg/L, the added substrate remained is 25.2% and the Conversion rate came to 68.2%. On CYP11A, the “accumulated amount of pregnenolone” value came out at 16.3 mg/L, the added substrate remained is given as 98.8% and the Conversion rate is 16.3%.

Consider `CC(C)CC[C@@H](O)[C@@H](C)[C@H]1CC[C@H]2[C@@H]3CCC4=CC(=O)CC[C@]4(C)[C@H]3CC[C@]12C` [(22R)-22-hydroxycholest-4-en-3-one], for which the added substrate remained worked out at 2.7% in the data set with CYPSS204A and 99.7% at CYP11A. Besides, the Conversion rate in the data set with CYPSS204A stood at 42.3%; with CYP204A1, 80.9%; on CYP11A, 0.4%.

As for `CC(C)CC[C@@H](O)[C@](C)(O)[C@H]1CC[C@H]2[C@@H]3CCC4=CC(=O)CC[C@]4(C)[C@H]3CC[C@]12C` [(20R,22R)-20,22-dihydroxycholest-4-en-3-one], the added substrate remained in the data set with CYPSS204A came out at 0.6%; on CYP11A it was 95%. The Conversion rate was 38.1% with CYPSS204A, 61.3% in the data set with CYP204A1 and 4.3% on CYP11A.

Take `CC(C)CC[C@H](O)[C@@H](C)[C@H]1CC[C@H]2[C@@H]3CC=C4C[C@@H](O)CC[C@]4(C)[C@H]3CC[C@]12C` [(22S)-22-hydroxy-cholesterol]: in the data set on CYPSS204A, the “accumulated amount of pregnenolone” value worked out at 37.5 mg/L, the added substrate remained stood at 23.5% and the Conversion rate stood at 37.5%. Also, in the data set on CYP204A1, the “accumulated amount of pregnenolone” value is reported as 12.9 mg/L, the added substrate remained turned out to be 60.1% and the Conversion rate worked out at 12.9%. Moreover, on CYP11A, the “accumulated amount of pregnenolone” value stood at 6.1 mg/L, the added substrate remained was found to be 92.6% and the Conversion rate is reported as 6.1%.

As for `CC[C@H](/C=C/[C@@H](C)[C@H]1CC[C@H]2[C@@H]3CC=C4C[C@@H](O)CC[C@]4(C)[C@H]3CC[C@]12C)C(C)C` [stigmasterol], in the data set with CYPSS204A, the “accumulated amount of side-chain cleavage product” value came to 5.8 mg/L, the added substrate remained amounted to 70.8% and the Conversion rate is 5.8%. Moreover, in the data set with CYP204A1, the Conversion rate was found to be 6.5%. In addition, at CYP11A, the added substrate remained was determined as 100% and the Conversion rate amounted to 0%.

B1: Novosphingobium aromaticivorans ATCC 700278 P450scc CYP204A1, wild type, SEQ ID NO: 23 (Novosphingobium aromaticivorans DSM 12444) (protein)
chain: MARAATAAGNGLPLLDGGVPLLGHLAQFFRDPVSVLKRGYRSKGRLFAMNFMGQRMNVMLGPEHNRFFFEETDKLLSIRESMPFFLKMFSPEFYSFAEMDEYLRQRSIIMPRFKAASMKQYVPVMVEESLNLVERLGEEGEFDLIPTLGPVVMDIAAHSFMGREFHEKLGHEFFELFRDFSGGMEFVLPLWLPTPKMVKSQRAKRKLHAILQSWIDKRRAAPLDPPDFFQTMIETKYPDGRPVPDEIIRHLILLLVWAGHETTAGQVSWALADLLQNPDYQKVLRGEISSLLGGSDGRDLGWEQAVAMEKMDLALRETERLHPVAYMLSRKARADIERDGYVIRKGEFVLLAPSVSHRMEETFRNPDAYDPERFNPANPDAQIESNSLIGFGGGVHRCAGVNFARMEMKVLVAILLQNFDMELMDEVRPIAGASTYWPAQPCRVRYRRRKLDGSEAGADMAALARAAGCPAHT
One may read the Km as the concentration of substrate that gives half-maximal velocity. B1: the Km in data set [1] was 1.0 µM.
